The values below come from US5332754A, “Naphthyloxazolidone derivatives” (Tanabe Seiyaku Co., Ltd., priority 1989, dated 1994).

Molecules are shown by their SMILES.

One data set concerns the target T1, MAO-A (Rattus norvegicus, UniProt P21396).
T1 construct: mitochondorial fraction obtained from cerebral tissue of rats; from tissue; host or cells: rat cerebral tissue, mitochondrial fraction
T1 sequence (P21396 1-526): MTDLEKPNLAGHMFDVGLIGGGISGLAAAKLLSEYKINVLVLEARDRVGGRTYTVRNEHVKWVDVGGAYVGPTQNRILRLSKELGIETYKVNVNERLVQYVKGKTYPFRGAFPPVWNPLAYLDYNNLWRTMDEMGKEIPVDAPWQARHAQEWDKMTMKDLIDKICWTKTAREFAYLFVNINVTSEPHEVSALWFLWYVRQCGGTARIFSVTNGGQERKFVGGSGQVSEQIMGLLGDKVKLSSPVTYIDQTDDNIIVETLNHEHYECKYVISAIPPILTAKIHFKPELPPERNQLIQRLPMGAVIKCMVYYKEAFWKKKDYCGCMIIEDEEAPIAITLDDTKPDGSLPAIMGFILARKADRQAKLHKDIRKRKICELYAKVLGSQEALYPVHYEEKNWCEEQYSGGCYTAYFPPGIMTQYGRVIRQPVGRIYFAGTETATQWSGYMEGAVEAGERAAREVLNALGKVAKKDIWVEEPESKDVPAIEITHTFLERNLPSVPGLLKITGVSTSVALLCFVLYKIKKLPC
Nature of the data set: Inhibitory effect against MAO-A activity of cerebral mitochondrial fraction from rat (in vitro). In kind it is biochemical. The conditions noted are these: 10^-7 M test compound, serotonin substrate, read-out: Inhibitory rate (%) against MAO-A activity. As to the method: Inhibitory effect against MAO-A activity of cerebral mitochondorian fraction from rat (in vitro)
(§1) A suspension (7mg protein/ml) of mitochondorial fraction obtained from cerebral tissue of rats in a conventional manner was used as a sample of enzyme, and serotonin was used as the substrate. of MAO-A. The MAO-A activity was estimated in terms of the amount of ammonia produced from serotonin by the enzymatic reaction.
Inhibitory rate of the test compounds (10^-7 M) against the MAO-A activity was calculated according to the following equation. [formula] NH3 (T): the amount of NH3 in test tube (addtion of test compound) NH3 (C): the amount of NH3 in control tube (no addition of test compound)

The test system of a further data set is cerebral MAO-A. The data set is described as follows: Inhibitory effect against cerebral MAO-A activity in mouse (oral administration). Type of data set: in vivo. The conditions noted are these: 30 mg/kg oral, brain excised 45 minutes after administration, serotonin substrate. Here is the method: as §1
(§2) Inhibitory effect against cerebral MAO-A and MAO-B activity in mouse.
(§3) A test compound (30 mg/kg) suspended in 0.5% aqueous sodium carboxymethylcellulose (CMC-Na) solution was administered orally to a group of 3 mice. The brain was excised 45 minutes after the administration. A control group was administered with the 0.5% aqueous CMC-Na solution alone.
(§4) The brain tissue was homogenized in 9 volumes of ice-cold distilled water and the homogenate was used as enzyme. MAO-A activity was estimated in the same manner as described in Experiment 1, whereas MAO-B activity was estimated in terms of the amount of benzaldehyde formed from benzylamine according to the method as described in "The Journal of Laboratory and Clinical Medicine, vol.

For a further data set, the system named is cerebral MAO-B. The data set is described as follows: Inhibitory effect against cerebral MAO-B activity in mouse (oral administration). Type of data set: in vivo. The conditions noted are these: 30 mg/kg oral, brain excised 45 minutes after administration, benzylamine substrate. Here is the method:
as §2, §3, §4
Inhibitory rate of the test compound against the MAO-B activity are calculated according to the following equation. [formula] BA(T): the amount of benzaldehyde in the medicated group BA(C): the amount of benzaldehyde in the non-medicated control group

The test system of a further data set is mice. Nature of the data set: Acute oral toxicity in mice. In kind it is in vivo, mouse. The conditions noted are these: 2g/kg orally, 2 week-observation period. An excerpt: The naphthyloxazolidone derivative (I)or a pharmaceutically acceptable salt thereof has excellent reversible and selective MAO-A inhibitory activity. Accordingly, the compound (I) or a pharmaceutically acceptable salt thereof is useful as a therapeutic or prophylactic agent for depressive conditions such as depression, senile depression, abulia, axiety, insomnia, anorexia and the like in warm-blood animals including human beings. […] Moreover, the compound (I) or a pharmaceutically acceptable salt thereof is low in toxicity and have high safety as a pharmaceuticals. For example, when 3-(6-cyanoethoxy-2-naphthyl)-5-methoxymethyl-2-oxazolidone was administered orally to mice at a dose of 2g/kg, no mice died during 2 week-observation period.

For the molecule `COCC1CN(c2ccc3cc(OCC4CC4)ccc3c2)C(=O)O1` (centres unmarked), the inhibition at 0.1 µM at MAO-A was 93.5%. Moreover, in the data set on cerebral MAO-A, the “Inhibitory rate (%) MAO-A” value was determined as 71.4 ± 4.3%. Besides, the “Inhibitory rate (%) MAO-B” value in the data set on cerebral MAO-B is reported as -4.5 ± 5.9%.

As to `COCC1CN(c2ccc3ccccc3c2)C(=O)O1` (centres unmarked) [H, 5-methoxymethyl-3-(2-naphthyl)-2-oxazolidone], the inhibition at 0.1 µM at MAO-A worked out at 78.4%.

For the molecule `COCC1CN(c2ccc3cc(OCCC#N)ccc3c2)C(=O)O1` (centres unmarked) [O(CH2)2 CN, 3-(6-cyanoethoxy-2-naphthyl)-5-methoxymethyl-2-oxazolidone], at MAO-A, the inhibition at 0.1 µM turned out to be 98.1%. Further, in the data set on cerebral MAO-A, the “Inhibitory rate (%) MAO-A” value amounted to 109.2 ± 3.5%. The “Inhibitory rate (%) MAO-B” value in the data set on cerebral MAO-B was -1.0 ± 2.3%. Moreover, in the data set with mice, the mortality result is “no mice died”.

Consider `COCC1CN(c2ccc3cc(OCCCC#N)ccc3c2)C(=O)O1` (centres unmarked) [O(CH2)3 CN], for which the inhibition at 0.1 µM at MAO-A was 95.5%. Further, in the data set with cerebral MAO-A, the “Inhibitory rate (%) MAO-A” value is 99.8 ± 16.1%. In the data set on cerebral MAO-B, the “Inhibitory rate (%) MAO-B” value is given as -1.9 ± 4.8%.

For the molecule `COCC1CN(c2ccc3cc(OCCCO)ccc3c2)C(=O)O1` (centres unmarked) [O(CH2)3 OH], at MAO-A, the inhibition at 0.1 µM was 91.7%. Besides, in the data set on cerebral MAO-A, the “Inhibitory rate (%) MAO-A” value was found to be 57.1 ± 4.3%. The “Inhibitory rate (%) MAO-B” value with cerebral MAO-B is on record as 1.0 ± 0.8%.

On to `C=CCOc1ccc2cc(N3CC(COC)OC3=O)ccc2c1` (centres unmarked) [OCH2 CHCH2], for which the inhibition at 0.1 µM on MAO-A came out at 96.8%.

For `COCC1CN(c2ccc3cc(OC(C)C)ccc3c2)C(=O)O1` (centres unmarked) [OCH(CH3)2], the inhibition at 0.1 µM on MAO-A was determined as 98.8%. Also, the “Inhibitory rate (%) MAO-A” value with cerebral MAO-A was 86.8 ± 5.4%. Moreover, in the data set on cerebral MAO-B, the “Inhibitory rate (%) MAO-B” value is given as 3.6 ± 5.3%.

Take `COCC1CN(c2ccc3cc(OC(C)=O)ccc3c2)C(=O)O1` (centres unmarked) [OCOCH3, 3-(6-acetyloxy-2-naphthyl)-5-methoxymethyl-2-oxazolidone]: the inhibition at 0.1 µM at MAO-A amounted to 76.6%. Also, in the data set with cerebral MAO-A, the “Inhibitory rate (%) MAO-A” value is recorded as 56.4 ± 7.4%. Further, the “Inhibitory rate (%) MAO-B” value in the data set on cerebral MAO-B is given as -3.1 ± 1.8%.

On to `C#CCN(C)Cc1ccccc1` [pargyline, reference compound], for which the “Inhibitory rate (%) MAO-A” value in the data set with cerebral MAO-A is recorded as 42.0 ± 2.4%. The “Inhibitory rate (%) MAO-B” value in the data set on cerebral MAO-B stood at 98.3 ± 5.9%.
